Measured values as given in patent US20250223306A1, “TEAD INHIBITORS AND METHODS OF USE” (Sporos BioDiscovery, Inc., priority 2022, published 2025).

Legend:
Type in all cases: cell-based
LOU-NH91 cells = assay: LOU-NH91 proliferation and cell viability assay (CTG); conditions: LOU-NH91 cell line, 216 hours
Procedure: LOU-NH91 cells were trypsinised, counted and plated at the specified cell density in 200 μl of growth media in 96 well flat bottom tissue culture treated plates. The plated cells were incubated overnight at 37° C., 5% CO2 before being treated with compounds in triplicate for each assay point. 50 μl of the serially diluted compound was added to each well giving a final DMSO concentration of 0.5% per well and a total volume of 250 μl per well. The treated cells were incubated for 216 hours (9 days) at 37° C., 5% CO2. Following compound treatment, the remaining viable cells were detected using the Promega CellTiter-Glo 2.0 assay as follows: 150 μl of media was removed from each of the wells to be assayed and 100 μl of room temperature CellTiter-Glo 2.0 reagent was added. The plate was placed on an orbital shaker at 500 rpm at room temperature for 2 minutes, and then incubated without shaking for a further 10 minutes at room temperature. 150 μl of cell lysate was removed from each well and dispensed into a single well of a white opaque 96 well plate. Luminescence at 545 nm was read using a BMG CLARIOstar plate reader. The luminescent signal was directly proportional to number of viable cells, the percent of viable cells relative to the DMSO control was then calculated for each assay point. Percent viability relative to DMSO control was plotted against compound concentration and a curve fitted with non-linear regression in GraphPad Prism software. EC50 and IC50 values were calculated using GraphPad Prism software as follows: For EC50 values a non-constrained four-parameter logistic curve fit was used (Sigmoidal, 4PL, X is concentration). For Absolute IC50 values the baseline was constrained to Y=0 (Absolute IC50, X is concentration). Area Under the Curve (AUC): Prism computes area-under-the-curve by the trapezoidal method. The analysis sees a fitted curve as simply a series of connected XY points. Prism simply computes the area under the “curve” defined by connecting the points by straight lines. The units of the AUC are the units of the Y axis times units of the X axis.

BHY cells = assay: BHY proliferation and cell viability assay (CTG); conditions: BHY cell line
Procedure: BHY cells were trypsinised, counted and plated at the specified cell density in 200 μl of growth media in 96 well flat bottom tissue culture treated plates. The plated cells were incubated overnight at 37° C., 5% CO2 before being treated with compounds in triplicate for each assay point. 50 μl of the serially diluted compound was added to each well giving a final DMSO concentration of 0.5% per well and a total volume of 250 μl per well. The treated cells were incubated for 144 hours (6 days) at 37° C., 5% CO2. Following compound treatment, the remaining viable cells were detected using the Promega CellTiter-Glo 2.0 assay as follows: 150 μl of media was removed from each of the wells to be assayed and 100 μl of room temperature CellTiter-Glo 2.0 reagent was added. The plate was placed on an orbital shaker at 500 rpm at room temperature for 2 minutes, and then incubated without shaking for a further 10 minutes at room temperature. 150 μl of cell lysate was removed from each well and dispensed into a single well of a white opaque 96 well plate. Luminescence at 545 nm was read using a BMG CLARIOstar plate reader. The luminescent signal was directly proportional to number of viable cells, the percent of viable cells relative to the DMSO control was then calculated for each assay point. Percent viability relative to DMSO control was plotted against compound concentration and a curve fitted with non-linear regression in GraphPad
Prism software. EC50 and IC50 values are calculated using GraphPad Prism software as follows: For EC50 values, a non-constrained four-parameter logistic curve fit was used (Sigmoidal, 4PL, X is concentration). For Absolute IC50 values the baseline was constrained to Y=0 (Absolute IC50, X is concentration). Area Under the Curve (AUC): Prism computes area-under-the-curve by the trapezoidal method. The analysis sees a fitted curve as simply a series of connected XY points. Prism simply computes the area under the “curve” defined by connecting the points by straight lines. The units of the AUC are the units of the Y axis times units of the X axis.

MSTO-211H cells = assay: MSTO-211H proliferation and cell viability assay (CTG); conditions: Homo sapiens, MSTO-211H cell line, 144 hours
Procedure: MSTO-211H cells were trypsinised, counted and plated at the specified cell density in 200 μl of growth media in 96 well flat bottom tissue culture treated plates. The plated cells were incubated overnight at 37° C., 5% CO2 before being treated with compounds in triplicate for each assay point. 50 μl of the serially diluted compound was added to each well giving a final DMSO concentration of 0.5% per well and a total volume of 250 μl per well. The treated cells were incubated for 144 hours (6 days) at 37° C., 5% CO2. Following compound treatment, the remaining viable cells were detected using the Promega CellTiter-Glo 2.0 assay as follows: 150 μl of media was removed from each of the wells to be assayed and 100 μl of room temperature CellTiter-Glo 2.0 reagent was added. The plate was placed on an orbital shaker at 500 rpm at room temperature for 2 minutes, and then incubated without shaking for a further 10 minutes at room temperature. 150 μl of cell lysate was removed from each well and dispensed into a single well of a white opaque 96 well plate. Luminescence at 545 nm is read using a BMG CLARIOstar plate reader. The luminescent signal was directly proportional to number of viable cells, the percent of viable cells relative to the DMSO control was then calculated for each assay point. Percent viability relative to DMSO control was plotted against compound concentration and a curve fitted with non-linear regression in GraphPad Prism software. IC50 values were calculated using GraphPad Prism software as follows: For Relative IC50 values a non-constrained four-parameter logistic curve fit was used (Sigmoidal, 4PL, X is concentration). For Absolute IC50 values the baseline was constrained to Y=0 (Absolute IC50, X is concentration). Area Under the Curve (AUC): Prism computes area-under-the-curve by the trapezoidal method. The analysis sees a fitted curve as simply a series of connected XY points. Prism simply computes the area under the “curve” defined by connecting the points by straight lines. The units of the AUC are the units of the Y axis times units of the X axis.

| SMILES | EC50 (LOU-NH91 cells) [nM] | EC50 (BHY cells; 144 hours) [nM] | EC50 (MSTO-211H cells) [nM] | EC50 (BHY cells; 144 h) [nM] |
| --- | --- | --- | --- | --- |
| C[C@H](NC(=O)c1cnc2c(C3=CC[C@@H](C(F)(F)F)CC3)cccc2c1)c1ncco1 (single isomer, unassigned) [Compound 19, N-(1-(oxazol-2-yl)ethyl)-8-(4-(trifluoromethyl)cyclohex-1-en-1-yl)quinoline-3-carboxamide] | < 200 | < 200 | < 200 |  |
| C[C@H](NC(=O)c1cnc2c(C3=CC[C@@H](C(F)(F)F)CC3)cccc2c1)c1ncco1 (single isomer, unassigned) [Compound 20, N-(1-(oxazol-2-yl)ethyl)-8-(4-(trifluoromethyl)cyclohex-1-en-1-yl)quinoline-3-carboxamide] | < 200 |  |  | < 200 |
| FC(F)(F)c1ccc(CN2CCC(C3CC(Br)=NO3)CC2)cc1 (stereo not drawn) [Compound 1-2, reference compound] | < 200 |  | < 200 | > 1000 |
| C=CC(=O)Nc1ccc(C)c(Oc2ccc(Cl)cc2)c1 [Compound 1-3, reference compound] | < 200 |  | < 200 | < 200 |
| C[C@H](CO)NC(=O)c1cnc2c(C3=CCC(C(F)(F)F)CC3)cccc2c1 (stereo partly drawn) [Compound 7, N—((R)-1-hydroxypropan-2-yl)-8-(4-(trifluoromethyl)cyclohex-1-en-1-yl)quinoline-3-carboxamide] | < 200 |  | < 200 | < 200 |
| O=C(NCc1ncco1)c1cnc2c(C3=CCC(C(F)(F)F)CC3)cccc2c1 (stereo not drawn) [Compound 11, N-(oxazol-2-ylmethyl)-8-(4-(trifluoromethyl)cyclohex-1-en-1-yl)quinoline-3-carboxamide] |  |  | < 200 |  |
| O=C(NCc1ccn[nH]1)c1cnc2c(C3=CCC(C(F)(F)F)CC3)cccc2c1 (stereo not drawn) [Compound 47, N-((1H-pyrazol-5-yl)methyl)-8-(4-(trifluoromethyl)cyclohex-1-en-1-yl)quinoline-3-carboxamide] | < 200 |  | < 200 | < 200 |
| COC[C@H](CO)NC(=O)c1cnc2c(C3=CCC(C(F)(F)F)CC3)cccc2c1 (stereo partly drawn) [Compound 62, N—((S)-1-hydroxy-3-methoxypropan-2-yl)-8-(4-(trifluoromethyl)cyclohex-1-en-1-yl)quinoline-3-carboxamide] | < 200 |  | < 200 | < 200 |
| COc1cc(C2=CCC(C(F)(F)F)CC2)c2ncc(C(=O)N[C@H](C)c3ncco3)cc2c1 (stereo partly drawn) [Compound 109, 6-methoxy-N—((R)-1-(oxazol-2-yl)ethyl)-8-(4-(trifluoromethyl)cyclohex-1-en-1-yl)quinoline-3-carboxamide] | < 200 |  | < 200 | < 200 |
| COc1cc(C2=CCC(C(F)(F)F)CC2)c2ncc(C(=O)N[C@H](C)CO)cc2c1 (stereo partly drawn) [Compound 110, N—((R)-1-hydroxypropan-2-yl)-6-methoxy-8-(4-(trifluoromethyl)cyclohex-1-en-1-yl)quinoline-3-carboxamide] |  |  | < 200 |  |
| C[C@H](CO)NC(=O)c1cnc2c(C3=CCC4(CC3)CC(F)(F)C4)cccc2c1 [Compound 165, (R)-8-(2,2-difluorospiro[3.5]non-6-en-7-yl)-N-(1-hydroxypropan-2-yl)quinoline-3-carboxamide] |  |  | < 200 |  |
| C[C@@H](NC(=O)c1cnc2c(C3=CCC4(CC3)CC4)cccc2c1)c1ncco1 [Compound 166, (R)—N-(1-(oxazol-2-yl)ethyl)-8-(spiro[2.5]oct-5-en-6-yl)quinoline-3-carboxamide] |  |  | < 200 |  |
